From ChEMBL document CHEMBL5137008, “Recent advances of antitumor shikonin/alkannin derivatives: A comprehensive overview focusing on structural classification, synthetic approaches, and mechanisms of action” (Eur J Med Chem, 2022)
In brackets after ≈: the same amount, converted by molar mass.

What was measured:
[1] = tested on: MCF7; test: Anticancer activity against human MCF7 cells incubated for 72 hrs by MTT assay; format: functional, cell-based; details: MCF7, 72 h
[2] = tested on: MGC-803; test: Anticancer activity against human MGC-803 cells incubated for 72 hrs by MTT assay; format: functional, cell-based; details: MGC-803, 72 h
[3] = tested on: HCT-15; test: Anticancer activity against human HCT-15 cells incubated for 72 hrs by MTT assay; format: functional, cell-based; details: HCT-15, 72 h
[4] = tested on: Fibroblast; test: Cytotoxicity against human skin fibroblast cells incubated for 72 hrs by MTT assay; format: functional, cell-based
[5] = Cytotoxicity against human L02 cells assessed as inhibition of cell growth incubated for 24 hrs in presence of foetal bovine serum by MTT assay; format: toxicity, cell-based
[6] = Cytotoxicity against human HEK293T cells assessed as inhibition of cell growth incubated for 24 hrs in presence of foetal bovine serum by MTT assay; format: toxicity, cell-based, HEK-293T
[7] = tested on: MCF7; test: Antiproliferative activity against human MCF7 cells assessed as inhibition of cell growth incubated for 24 hrs in presence of foetal bovine serum by MTT assay; format: functional, cell-based; details: MCF7, 24 h
[8] = tested on: HeLa; test: cells; details: Homo sapiens, 24 h
[9] = Anticancer activity against human A875 cells assessed as inhibition of cell growth incubated for 24 hrs by MTT assay; format: functional, cell-based; details: A875, 24 h
[10] = tested on: A549; test: Antiproliferative activity against human A549 cells assessed as inhibition of cell growth incubated for 24 hrs in presence of foetal bovine serum by MTT assay; format: functional, cell-based; details: A549, 24 h
[11] = tested on: HepG2; test: Anticancer activity against human HepG2 cells assessed as inhibition of cell growth incubated for 24 hrs by MTT assay; format: functional, cell-based; details: HepG2, 24 h
[12] = Cytotoxicity against human L02 cells assessed as inhibition of cell growth incubated for 24 hrs by MTT assay; format: toxicity, cell-based
[13] = Antitubulin activity against bovine brain tubulin polymerization preincubated with compound followed by GTP addition by turbidimetry-based spectrophotometric method; set-up: species or system Bos taurus
[14] = tested on: A549; test: Antiproliferative activity against human A549 cells assessed as reduction in cell viability incubated for 24 hrs by MTT assay; format: functional, cell-based; details: A549, 24 h
[15] = Cytotoxicity against human L02 cells assessed as reduction in cell viability incubated for 24 hrs by MTT assay; format: toxicity, cell-based
[16] = tested on: HepG2; test: Antiproliferative activity against human HepG2 cells assessed as reduction in cell viability incubated for 24 hrs by MTT assay; format: functional, cell-based; details: HepG2, 24 h
[17] = tested on: HeLa; test: Antiproliferative activity against human HeLa cells assessed as reduction in cell viability incubated for 24 hrs by MTT assay; format: functional, cell-based
[18] = tested on: Ca9-22; test: Cytotoxicity against human Ca9-22 cells assessed as reduction in cell viability incubated for 48 hrs by MTT assay; format: functional, cell-based; details: Ca9-22, 48 h
[19] = tested on: Ca9-22; test: Cytotoxicity against human Ca9-22 cells assessed as reduction in cell viability incubated for 24 hrs by MTT assay; format: functional, cell-based; details: Ca9-22, 24 h
[20] = tested on: A549; test: Anticancer activity against human A549 cells; format: functional; details: read-out: ED50 (the source's name)
[21] = tested on: Sarcoma-180; test: Antitumor activity against mouse Sarcoma-180 cells xenografted in ip dosed ICR mouse assessed as tumor growth inhibition rate administered daily for 7 days relative to control; format: functional; details: time 7 day
[22] = tested on: L1210; test: Anticancer activity against mouse L1210 cells; format: functional; details: read-out: ED50 (the source's name)
[23] = Antitumor activity against human WM9 cells assessed as reduction in cell viability incubated for 72 hrs by XTT assay; format: functional, cell-based; details: WM9, 72 h
[24] = tested on: WM164; test: Antitumor activity against human WM164 cells assessed as reduction in cell viability incubated for 72 hrs by XTT assay; format: functional, cell-based; details: WM164, 72 h
[25] = tested on: SBcl2; test: Antitumor activity against human SBcl2 cells assessed as reduction in cell viability incubated for 72 hrs by XTT assay; format: functional, cell-based; details: SBcl2, 72 h
[26] = tested on: MUGMel2; test: Antitumor activity against human MUG-Mel2 cells assessed as reduction in cell viability incubated for 72 hrs by XTT assay; format: functional, cell-based; details: MUGMel2, 72 h
[27] = tested on: A549; test: Anticancer activity against human A549 cells assessed as inhibition of cell growth incubated for 72 hrs by MTT assay; format: functional, cell-based; details: A549, 72 h
[28] = tested on: SW872; test: Anticancer activity against human SW872 cells assessed as inhibition of cell growth incubated for 72 hrs by MTT assay; format: functional, cell-based; details: SW872, 72 h
[29] = Anticancer activity against human A875 cells assessed as inhibition of cell growth incubated for 72 hrs by MTT assay; format: functional, cell-based; details: A875, 72 h
[30] = tested on: A549; test: Antiproliferative activity against human A549 cells assessed as inhibition of cell proliferation incubated for 20 hrs by MTT assay; format: functional, cell-based; details: A549, 20 h
[31] = tested on: HepG2; test: Antiproliferative activity against human HepG2 cells assessed as inhibition of cell proliferation incubated for 20 hrs by MTT assay; format: functional, cell-based; details: HepG2, 20 h
[32] = tested on: MCF7; test: Antiproliferative activity against human MCF7 cells assessed as inhibition of cell proliferation incubated for 20 hrs by MTT assay; format: functional, cell-based; details: MCF7, 20 h
[33] = Antiproliferative activity against human BGC cells assessed as inhibition of cell proliferation incubated for 20 hrs by MTT assay; format: functional, cell-based
[34] = tested on: L02; test: Antiproliferative activity against human L02 cells assessed as inhibition of cell proliferation incubated for 20 hrs by MTT assay; format: functional, cell-based; details: L02, 20 h
[35] = tested on: HeLa; test: Antiproliferative activity against human HeLa cells assessed as inhibition of cell proliferation incubated for 20 hrs by MTT assay; format: functional, cell-based
[36] = tested on: SMMC-7721; test: Anticancer activity against human SMMC-7721 cells incubated for 48 hrs by MTT assay; format: functional, cell-based; details: SMMC-7721, 48 h
[37] = tested on: SGC-7901; test: Anticancer activity against human SGC-7901 cells incubated for 48 hrs by MTT assay; format: functional, cell-based; details: SGC-7901, 48 h, read-out: IC50
[38] = tested on: U-87 MG; test: Anticancer activity against human U87 cells incubated for 48 hrs by MTT assay; format: functional, cell-based, U-87MG ATCC
[39] = tested on: MGC-803; test: Anticancer activity against human MGC-803 cells incubated for 48 hrs by MTT assay; format: functional, cell-based; details: MGC-803, 48 h
[40] = Cytotoxicity against human L02 cells incubated for 48 hrs by MTT assay; format: toxicity, cell-based

Question: Which results are given for O=c1[nH]cc(F)c(=O)[nH]1 [FLUOROURACIL]?
Answer: IC50 [1]: 29.5 µM; IC50 [2]: > 50 µM; IC50 [3]: 8.24 µM; IC50 [4]: > 50 µM

Question: With COc1cc2c(c(OC)c1OC)-c1ccc(OC)c(=O)cc1[C@@H](NC(C)=O)CC2 [COLCHICINE] as the compound, how does the IC50 at 24 h [5] read?
Answer: 2.3 µM

Question: What about the IC50 at 24 h [6] of the same compound?
Answer: 1.03 µM

Question: What about the IC50 [7] of the same compound?
Answer: 0.22 µM

Question: What about the IC50 [8] of the same compound?
Answer: 17.8 µM

Question: What about the IC50 [9] of the same compound?
Answer: 0.75 µM

Question: What about the IC50 [10] of the same compound?
Answer: 0.47 µM

Question: What about the IC50 [11] of the same compound?
Answer: 4.65 µM

Question: With CC(C)=CC[C@@H](OC(=O)Cc1ccc(Oc2ccccc2)cc1)C1=CC(=O)c2c(O)ccc(O)c2C1=O as the compound, how does the IC50 [8] read?
Answer: 4.31 µM

Question: What about the IC50 [9] of the same compound?
Answer: 1.24 µM

Question: And the IC50 [11]?
Answer: 0.426 µM

Question: And the IC50 at 24 h [12]?
Answer: > 100 µM

Question: And the IC50 [13]?
Answer: 4.31 µM

Question: Which results are given for CC(C)=CC[C@@H](OC(=O)C1CC1)C1=CC(=O)c2c(O)ccc(O)c2C1=O?
Answer: IC50 [14]: 3.73 µM; IC50 at 24 h [15]: > 100 µM; IC50 [16]: 0.759 µM; IC50 [17]: 3.47 µM

Question: What does the source list for CC(C)=CC[C@@H](OC(=O)C(C)C)C1=CC(=O)c2c(O)ccc(O)c2C1=O [ISOBUTYLSHIKONIN]?
Answer: IC50 [18]: 1.8 µM; IC50 [19]: 1.98 µM

Question: Which EC50 [20] does the source give for CO/N=C/c1cc(O)c2c(c1O)C(=O)C=CC2=O here?
Answer: > 10 µg/mL

Question: And the T/C [21]?
Answer: 318%

Question: What about the EC50 [22] of the same compound?
Answer: 0.109 µg/mL (≈ 0.441 µM)

Question: Which IC50 [23] does the source give for CC(C)=CC[C@@H](OC(=O)C=C(C)C)C1=CC(=O)c2c(O)ccc(O)c2C1=O [DIMETHYLACRYLSHIKONIN] here?
Answer: 2.7 µM

Question: What about the IC50 [24] of the same compound?
Answer: 8.3 µM

Question: And the IC50 [25]?
Answer: 1.1 µM

Question: And the IC50 [26]?
Answer: 7.2 µM

Question: For CC(C)=CC[C@@H](OC(=O)/C=C/c1ccc(F)c(F)c1)C1=CC(=O)c2c(O)ccc(O)c2C1=O, which IC50 [27] is on record?
Answer: 2.1 µM

Question: And the IC50 [28]?
Answer: 0.36 µM

Question: And the IC50 [29]?
Answer: 0.55 µM

Question: For CC(C)=CC[C@@H](OC(=O)[C@@H](Cc1ccccc1)N1C(=O)C2C3C=CC(C3)C2C1=O)C1=CC(=O)c2c(O)ccc(O)c2C1=O (stereo partly drawn), which IC50 [30] is on record?
Answer: > 100 µM

Question: What about the IC50 [31] of the same compound?
Answer: 1.92 µM

Question: What about the IC50 [32] of the same compound?
Answer: 3.55 µM

Question: What about the IC50 [33] of the same compound?
Answer: 11.6 µM

Question: And the IC50 [34]?
Answer: > 100 µM

Question: And the IC50 [35]?
Answer: 1.26 µM

Question: With CC(C)=CC[C@@H](OC(=O)CCC(=O)Nc1ccc(Oc2ccccc2)cc1)C1=CC(=O)c2c(O)ccc(O)c2C1=O as the compound, how does the IC50 [36] read?
Answer: 20.6 µM

Question: And the IC50 [37]?
Answer: 4.1 µM

Question: And the IC50 [38]?
Answer: 3.8 µM

Question: What about the IC50 [39] of the same compound?
Answer: 4.1 µM

Question: What about the IC50 at 48 h [40] of the same compound?
Answer: > 50 µM
